Results from patent publication US9567319B2, “Compound having higher inhibitory activity on protein kinase G and preparation method thereof” (Jenkem Technology Co., Ltd., (Tianjin), priority 2014, dated 2017).
≈ marks a conversion by molar mass, not a printed value. Where “and” joins values, the source holds several entries; their conditions need not be identical. Identical values can stand only once.

Assays:
[1] = system: hyperalgesia induced by Freund's complete adjuvant (CFA) in rats; assay: Von Frey filament test, CFA induced hyperalgesia in rats; type: in vivo, SD rats; settings: for Von Frey Filament Test Values (Mean ± SD), Baseline: pretreatment, n=8; for Von Frey Filament Test Values (Mean ± SD), 15 min: 15 min post treatment; for Von Frey Filament Test Values (Mean ± SD), 2 h: 2 h post treatment
Experimental: Compounds 46 and JK-02A were prepared according to the disclosure of US patent application No. US2008/0176920, and compound JK-02H was prepared according to Example 1. A repeat efficacy study was carried out on the same batch of animals with a single-dose treatment followed by a washing-out period. The 14 days in life studies included two stages: a single low dose treatment assessment on the 7th day and then a single high dose treatment test on the 14th day after CFA injection. On the 7th day after CFA injection, the rats were randomly assigned to respective groups using a computer generated randomization procedure based on the body weight and the baseline values of Von Frey and weight bearing test. Animals received corresponding single dose treatments (vehicle and 3 test articles) on the 7th and 14th days after CFA injection, respectively, and the effect of the test compounds were evaluated. Hyperalgesia of all the study animals was assessed following a single low dose treatment with the test articles on day 7, while a single high dose effect of the test article was evaluated on day 14. The mechanical hyperalgesia and weight bearing were measured on day 7 and day 14 after CFA injection, followed by administration of control or test articles. Von Frey filaments and weight bearing were measured on all the study animals at three time points on day 7, and four time points on day 14. An extra time point assessment was conducted on day 14, considering the strong analgesic effect of the test articles at a higher dose noticed during the test at the 3th time point. Mechanical hyperalgesia of the left hind paw was measured before and during the course of study in all animal groups by determining withdrawal thresholds to Von Frey filament (Bioseb, France). Increasing tensile force perpendicular to the plantar surface of the paw was applied to the filaments. The threshold for paw withdrawal was calculated by taking the average of 2-3 repeated stimuli (unit in “g”). On day 7, Von Frey Filament measurements were conducted three times, at the time points of pretreatment, 15 min and 2 hours post treatment. Following a one-week washing out period, on day 14 after CFA injection, Von Frey Filament tests were performed again four times post a single high dose administration. Rats treated with vehicle or high dose test articles were measured at the time points of pretreatment, 15 min, 2 and 5 hours post treatment. All the results were expressed as mean±SD. One-way analysis of variance (ANOVA) followed by a multiple comparison test were applied among the groups, p<0.05 accepted as significant.

[2] = system: hyperalgesia induced by Freund's complete adjuvant (CFA) in rats; assay: Weight bearing test, CFA induced hyperalgesia in rats; type: in vivo, SD rats; settings: for Weight Bearing Test Values (Mean ± SD), Baseline: pretreatment, n=8; for Weight Bearing Test Values (Mean ± SD), 15 min: 15 min post treatment; for Weight Bearing Test Values (Mean ± SD), 2 h: 2 h post treatment
Experimental: Compounds 46 and JK-02A were prepared according to the disclosure of US patent application No. US2008/0176920, and compound JK-02H was prepared according to Example 1. A repeat efficacy study was carried out on the same batch of animals with a single-dose treatment followed by a washing-out period. The 14 days in life studies included two stages: a single low dose treatment assessment on the 7th day and then a single high dose treatment test on the 14th day after CFA injection. On the 7th day after CFA injection, the rats were randomly assigned to respective groups using a computer generated randomization procedure based on the body weight and the baseline values of Von Frey and weight bearing test. Animals received corresponding single dose treatments (vehicle and 3 test articles) on the 7th and 14th days after CFA injection, respectively, and the effect of the test compounds were evaluated. Hyperalgesia of all the study animals was assessed following a single low dose treatment with the test articles on day 7, while a single high dose effect of the test article was evaluated on day 14. The mechanical hyperalgesia and weight bearing were measured on day 7 and day 14 after CFA injection, followed by administration of control or test articles. Von Frey filaments and weight bearing were measured on all the study animals at three time points on day 7, and four time points on day 14. An extra time point assessment was conducted on day 14, considering the strong analgesic effect of the test articles at a higher dose noticed during the test at the 3th time point. Rats distributed body weight unequally on the CFA-injected and contra lateral paws, which was measured by a weight balance changing instrument (Bio-medical, USA). The animals were tested in a box constructed to register the weight load exerted by the hind paws by means of force plates inserted in the floor. The mean weight bearing (unit in “g”) between the CFA-injected paw and the contra-lateral paw was determined in 10 seconds. The weight bearing test of all study animals was conducted at the same time intervals as the mechanical hyperalgesia test. All the results were expressed as mean±SD. One-way analysis of variance (ANOVA) followed by a multiple comparison test were applied among the groups, p<0.05 accepted as significant.

[3] = Test of water solubility of the compounds
Experimental: At room temperature, about 0.1 g of each sample to be tested (solid materials should be ground as powder) was added to a 10 mL cylinder with a ground glass stopper. Water was gradually added. After each addition of 0.5 mL water, the resulting solution was stirred for 10 min for mixing, and was then visually examined for the presence of any undissolved sample. If there still exists undissolved sample or undissolved portions of the sample after 10 mL water was added, the test would be continued in a 100 mL cylinder.

[4] = day 7 after CFA, low dose groups (46 and JK-02A 10 mg/kg, JK-02H 5 mg/kg)
[5] = day 7 after CFA, single low dose i.v. (46 and JK-02A 10 mg/kg, JK-02H 5 mg/kg)
[6] = day 14 after CFA, high dose groups (46 and JK-02A 40 mg/kg, JK-02H 20 mg/kg)
[7] = day 14 after CFA, single high dose i.v. (46 and JK-02A 40 mg/kg, JK-02H 20 mg/kg)
[8] = day 14 after CFA, single high dose i.v. (46 and JK-02A 40 mg/kg, JK-02H 20 mg/kg), 5 h post treatment
[9] = individual animal, high dose i.v. (46 and JK-02A 40 mg/kg, JK-02H 20 mg/kg), two repeated stimuli
[10] = individual animal, low dose i.v. (46 and JK-02A 10 mg/kg, JK-02H 5 mg/kg), two repeated stimuli
[11] = individual animal, high dose i.v. (46 and JK-02A 40 mg/kg, JK-02H 20 mg/kg)
[12] = individual animal, low dose i.v. (46 and JK-02A 10 mg/kg, JK-02H 5 mg/kg)

CCCOc1ccc(F)c(F)c1C(=O)c1ccc(C(=O)N[C@@H]2CNC[C@H]2NC(=O)c2ccc3cn[nH]c3c2)cc1 [JK-02A]
Von Frey Filament Test Values (Mean ± SD), Baseline [1, 4]: 6.89 ± 0.99 g
Von Frey Filament Test Values (Mean ± SD), 15 min [1, 5]: 7.64 ± 1.83 g
Von Frey Filament Test Values (Mean ± SD), 2 h [1, 5]: 7.43 ± 1.62 g
Von Frey Filament Test Values (Mean ± SD), Baseline [1, 6]: 6.73 ± 0.74 g
Von Frey Filament Test Values (Mean ± SD), 15 min [1, 7]: 8.63 ± 1.62 g
Von Frey Filament Test Values (Mean ± SD), 2 h [1, 7]: 8.82 ± 1.20 g
Von Frey Filament Test Values (Mean ± SD), 5 h [1, 8]: 8.45 ± 2.18 g
Von Frey Values of Individual Animal, Day 14, 15 min [1, 9]: 9.3 g and 8.9 g and 6.5 g and 7.4 g (2×) and 10.9 g and 9.5 g (2×) and 6.1 g and 12.5 g and 10.6 g and 7.6 g and 9.2 g and 8.5 g and 10.7 g and 9.1 g
Von Frey Values of Individual Animal, Day 14, 2 h [1, 9]: 8.7 g (2×) and 9.8 g and 9.5 g and 9.3 g (2×) and 9.4 g and 9.1 g and 8.5 g and 9.2 g and 8.2 g and 8.9 g and 9.6 g and 10.6 g and 6.2 g and 5.8 g
Von Frey Values of Individual Animal, Day 14, 5 h [1, 9]: 11.9 g and 13.2 g and 6.7 g and 5.2 g and 8.3 g and 9.2 g and 9.7 g and 9.8 g and 8.8 g and 9.9 g and 6.4 g and 5.7 g and 7.3 g and 8.9 g and 7.4 g and 6.8 g
Von Frey Values of Individual Animal, Day 7, 15 min [1, 10]: 9.1 g (3×) and 8.8 g and 6.3 g and 5.6 g (2×) and 10.2 g and 8.9 g and 10.0 g and 9.5 g (2×) and 5.7 g and 7.3 g and 6.0 g and 9.4 g
Von Frey Values of Individual Animal, Day 7, 2 h [1, 10]: 6.6 g and 5.6 g and 7.0 g (3×) and 8.3 g and 7.4 g and 6.0 g and 8.9 g and 10.5 g and 10.4 g and 6.5 g and 7.1 g and 7.3 g and 5.1 g and 4.9 g
First Baseline, Von Frey, individual animal ([1]; individual animal, pretreatment day 7, two repeated stimuli per animal): 5.1 g and 5.9 g and 5.8 g and 6.5 g and 6.9 g and 6.2 g and 5.2 g and 6.8 g (2×) and 7.8 g and 7.3 g and 7.6 g (2×) and 7.9 g and 8.2 g and 8.6 g
Second Baseline, Von Frey, individual animal ([1]; individual animal, pretreatment day 14 after washing-out, two repeated stimuli per animal): 7.1 g (2×) and 5.3 g and 5.2 g and 7.4 g and 7.3 g and 6.0 g and 7.6 g and 6.4 g (2×) and 6.6 g and 7.7 g and 7.5 g (2×) and 5.8 g and 6.7 g
Weight Bearing Test Values (Mean ± SD), Baseline [2, 4]: 48.18 ± 5.05 g
Weight Bearing Test Values (Mean ± SD), 15 min [2, 5]: 38.11 ± 11.23 g
Weight Bearing Test Values (Mean ± SD), 2 h [2, 5]: 36.24 ± 9.72 g
Weight Bearing Test Values (Mean ± SD), Baseline [2, 6]: 49.54 ± 7.39 g
Weight Bearing Test Values (Mean ± SD), 15 min [2, 7]: 28.43 ± 8.83 g
Weight Bearing Test Values (Mean ± SD), 2 h [2, 7]: 33.36 ± 8.92 g
Weight Bearing Test Values (Mean ± SD), 5 h [2, 8]: 42.69 ± 7.52 g
Weight Bearing Values of Individual Animal, Day 14, 15 min, Left [2, 11]: 58.9 g and 57.8 g and 49.6 g and 53.7 g and 52.7 g and 50.9 g and 67.1 g and 72.2 g
Weight Bearing Values of Individual Animal, Day 14, 15 min, Right [2, 11]: 77.1 g and 95.3 g and 77.6 g and 90.1 g and 80.4 g and 80.1 g and 104.0 g and 85.7 g
Weight Bearing Values of Individual Animal, Day 14, 15 min, Δ [2, 11]: 18.2 g and 37.5 g and 28.0 g and 36.4 g and 27.7 g and 29.2 g and 36.9 g and 13.5 g
Weight Bearing Values of Individual Animal, Day 14, 2 h, Left [2, 11]: 66.8 g and 71.9 g and 48.9 g and 60.7 g and 50.1 g and 54.6 g and 44.8 g and 72.2 g
Weight Bearing Values of Individual Animal, Day 14, 2 h, Right [2, 11]: 97.0 g and 106.5 g and 97.2 g and 81.1 g and 79.8 g and 91.1 g and 86.5 g and 97.7 g
Weight Bearing Values of Individual Animal, Day 14, 2 h, Δ [2, 11]: 30.2 g and 34.6 g and 48.3 g and 20.4 g and 29.7 g and 36.5 g and 41.7 g and 25.5 g
Weight Bearing Values of Individual Animal, Day 14, 5 h, Left [2, 11]: 38.0 g and 62.9 g and 55.0 g and 45.7 g and 52.7 g and 39.7 g and 54.9 g and 68.2 g
Weight Bearing Values of Individual Animal, Day 14, 5 h, Right [2, 11]: 77.2 g and 99.3 g and 93.8 g and 90.7 g and 92.0 g and 99.9 g and 95.3 g and 110.4 g
Weight Bearing Values of Individual Animal, Day 14, 5 h, Δ [2, 11]: 39.2 g and 36.4 g and 38.8 g and 45.0 g and 39.3 g and 60.2 g and 40.4 g and 42.2 g
Weight Bearing Values of Individual Animal, Day 7, 15 min, Left [2, 12]: 36.6 g and 56.4 g and 47.8 g and 37.9 g and 36.9 g and 50.5 g and 25.4 g and 65.6 g
Weight Bearing Values of Individual Animal, Day 7, 15 min, Right [2, 12]: 83.8 g and 79.1 g and 74.1 g and 89.5 g and 62.9 g and 93.7 g and 69.1 g and 109.8 g
Weight Bearing Values of Individual Animal, Day 7, 15 min, Δ [2, 12]: 47.2 g and 22.7 g and 26.3 g and 51.6 g and 26.0 g and 43.2 g and 43.7 g and 44.2 g
Weight Bearing Values of Individual Animal, Day 7, 2 h, Left [2, 12]: 68.5 g and 68.0 g and 31.5 g and 39.9 g and 43.9 g and 37.3 g and 52.3 g and 62.2 g
Weight Bearing Values of Individual Animal, Day 7, 2 h, Right [2, 12]: 99.4 g and 85.5 g and 80.7 g and 75.7 g and 77.3 g and 73.4 g and 95.8 g and 105.7 g
Weight Bearing Values of Individual Animal, Day 7, 2 h, Δ [2, 12]: 30.9 g and 17.5 g and 49.2 g and 35.8 g and 33.4 g and 36.1 g and 43.5 g (2×)
First Baseline, Balance Left, individual animal ([2]; individual animal, pretreatment day 7, left (CFA-injected) hind paw): 54.2 g and 57.2 g and 45.5 g and 64.4 g and 45.6 g and 12.0 g and 58.0 g and 64.0 g
First Baseline, Balance Right, individual animal ([2]; individual animal, pretreatment day 7, right hind paw): 103.7 g and 98.1 g and 93.0 g and 117.4 g and 90.5 g and 66.3 g and 100.6 g and 116.7 g
First Baseline, Balance Δ, individual animal ([2]; individual animal, pretreatment day 7, right minus left): 49.5 g and 40.9 g and 47.5 g and 53.0 g and 44.9 g and 54.3 g and 42.6 g and 52.7 g
Second Baseline, Balance Left, individual animal ([2]; individual animal, pretreatment day 14, left (CFA-injected) hind paw): 32.1 g and 47.3 g and 30.4 g and 45.9 g and 50.1 g and 39.6 g and 33.5 g and 57.1 g
Second Baseline, Balance Right, individual animal ([2]; individual animal, pretreatment day 14, right hind paw): 89.3 g and 90.0 g and 81.0 g and 87.2 g and 92.4 g and 90.4 g and 94.1 g and 97.9 g
Second Baseline, Balance Δ, individual animal ([2]; individual animal, pretreatment day 14, right minus left): 57.2 g and 42.7 g and 50.6 g and 41.3 g and 52.3 g and 50.8 g and 60.6 g and 40.8 g
Volume of added water ([3]; about 0.1 g sample, room temperature, water added until dissolved): 71.5 mL
solubility ([3]; water, thermodynamic from solid): 1400 µg/mL (≈ 2560 µM)
